# Test results taken from US20070128217A1 (priority 2003, published 2007).
# Columns and labels:
# [1] = tested on: antibodies in sera from SARS patients (sera 1a, 1b, 2, 6, 37, 62, London, SARS-yellow, SARS-green); type: binding, human; set-up: Binding of serum 6 to linear peptides of protein X1 of SARS-CoV Urbani / Binding of serum 37 to linear peptides of protein X1 of SARS-CoV Urbani / Binding of serum 6 to looped/cyclic peptide (PEPSCAN-ELISA) / Binding of serum 37 to looped/cyclic peptide (PEPSCAN-ELISA) / Binding of serum 37 to looped/cyclic peptides of protein X1 of SARS-CoV Urbani / Binding of serum 6 to linear peptides of protein X2 / Binding of serum 37 to linear peptides of protein X2 / Binding of serum 37 to looped/cyclic peptides of protein X2 of SARS-CoV Urbani / Binding of serum 6 to linear peptides of protein M of SARS-CoV Urbani / Binding of serum 37 to linear peptides of protein M of SARS-CoV Urbani / Binding of serum 6 to looped/cyclic peptides of protein M of SARS-CoV Urbani / Binding of serum 37 to looped/cyclic peptides of protein M of SARS-CoV Urbani / Binding of serum 6 to linear peptides of protein X3 of SARS-CoV Urbani / Binding of serum 37 to linear peptides of protein X3 of SARS-CoV Urbani / Binding of serum 37 to looped/cyclic peptides of protein X3 of SARS-CoV Urbani / Binding of serum 6 to linear peptides of protein X4 of SARS-CoV Urbani / Binding of serum 37 to linear peptides of protein X4 of SARS-CoV Urbani / Binding of serum 37 to looped/cyclic peptides of protein X4 of SARS-CoV Urbani / Binding of serum 6 to linear peptides of protein X5 of SARS-CoV Urbani / Binding of serum 37 to linear peptides of protein X5 of SARS-CoV Urbani / Binding of serum 37 to looped/cyclic peptides of protein X5 of SARS-CoV Urbani / Binding of serum 6 to linear peptides of protein N of SARS-CoV Urbani / Binding of serum 37 to linear peptides of protein N of SARS-CoV Urbani / Binding of serum 6 to linear peptide (PEPSCAN-ELISA) / Binding of serum 1a to looped/cyclic peptides of protein N of SARS-CoV Urbani / Binding of serum 1b to looped/cyclic peptides of protein N of SARS-CoV Urbani / Binding of serum 2 to looped/cyclic peptides of protein N of SARS-CoV Urbani / Binding of serum 6 to looped/cyclic peptides of protein N of SARS-CoV Urbani / Binding of serum 37 to looped/cyclic peptides of protein N of SARS-CoV Urbani / Binding of serum 62 to looped/cyclic peptides of protein N of SARS-CoV Urbani / Binding of serum London to looped/cyclic peptides of protein N of SARS-CoV Urbani / Binding of serum SARS-green to looped/cyclic peptides of protein N of SARS-CoV Urbani: unit not given here
# [2] = tested on: recombinant human anti-SARS-CoV antibody 03-018; type: binding; set-up: Binding of antibody 03-018 to linear peptides of the N protein of SARS-CoV Urbani / Binding of antibody 03-018 to looped/cyclic peptides of the N protein of SARS-CoV Urbani: unit not given here
# [3] = tested on: rabbit serum obtained by immunizing a rabbit with the SARS-CoV strain Frankfurt 1; type: binding; set-up: Binding of a rabbit serum to linear peptides / Binding of a rabbit serum to looped peptides / Rabbit serum linear peptides / Rabbit serum looped peptides / Binding of a rabbit serum to linear peptides of protein N of SARS-CoV Urbani (Rabbit serum linear peptides) / Binding of a rabbit serum to looped/cyclic peptides of protein N of SARS-CoV Urbani (Rabbit serum looped peptides): unit not given here
# [4] = tested on: control sera (pooled serum of ten healthy LUMC hospital workers; commercial negative donor pooled serum from the Dutch bloodbank); type: binding, human; set-up: Binding of Control serum LUMC to linear peptides / Binding of Control serum Blood-bank to linear peptides / Binding of Control serum LUMC to looped peptides / Binding of Control Serum Blood-Bank to Looped peptides / Binding of Control serum LUMC to linear peptides of the protein M of SARS-CoV Urbani / Binding of Control serum Blood-bank to linear peptides of the protein M of SARS-CoV Urbani / Binding of Control serum LUMC to looped peptides of the protein M of SARS-CoV Urbani / Binding of Control Serum Blood-Bank to Looped peptides of the protein M of SARS-CoV Urbani: unit not given here
Sequence,Binding of serum 1a to linear peptides of protein N of SARS-CoV Urbani [1],Binding of serum 1a to looped/cyclic peptides of protein N of SARS-CoV Urbani [1],Binding of serum 1b to linear peptides of protein N of SARS-CoV Urbani [1],Binding of serum 1b to looped/cyclic peptides of protein N of SARS-CoV Urbani [1],Binding of serum 2 to linear peptides of protein N of SARS-CoV Urbani [1],Binding of serum 2 to looped/cyclic peptides of protein N of SARS-CoV Urbani [1],Binding of serum 6 to linear peptides of protein N of SARS-CoV Urbani [1],Binding of serum 6 to looped/cyclic peptides of protein N of SARS-CoV Urbani [1],Binding of serum 37 to linear peptides of protein N of SARS-CoV Urbani [1],Binding of serum 37 to looped/cyclic peptides of protein N of SARS-CoV Urbani [1],Binding of serum 62 to linear peptides of protein N of SARS-CoV Urbani [1],Binding of serum 62 to looped/cyclic peptides of protein N of SARS-CoV Urbani [1],Binding of serum London to linear peptides of protein N of SARS-CoV Urbani [1],Binding of serum London to looped/cyclic peptides of protein N of SARS-CoV Urbani [1],Binding of serum SARS-green to linear peptides of protein N of SARS-CoV Urbani [1],Binding of serum SARS-green to looped/cyclic peptides of protein N of SARS-CoV Urbani [1],Binding of serum SARS-yellow to linear peptides of protein N of SARS-CoV Urbani [1],Binding of serum SARS-yellow to looped/cyclic peptides of protein N of SARS-CoV Urbani [1],Binding of antibody 03-018 to linear peptides of the N protein of SARS-CoV Urbani [2],Binding of antibody 03-018 to looped/cyclic peptides of the N protein of SARS-CoV Urbani [2],further results
KTFPPTEPKKDKKKK,0.2,0.2,0.1,0.1,0.4,0.2,0.2,0.0,0.8,0.4,0.6,0.2,0.4,0.2,0.1,0.0,0.8,0.2,0.1,0.2,Binding of a rabbit serum to linear peptides of protein N of SARS-CoV Urbani (Rabbit serum linear peptides) [3]: 0.1; Binding of a rabbit serum to looped/cyclic peptides of protein N of SARS-CoV Urbani (Rabbit serum looped peptides) [3]: 0.1; Control Serum Blood-Bank Looped peptides [4]: 0.3; Control serum Blood-bank linear peptides [4]: 0.6; Control serum LUMC linear peptides [4]: 0.7; Control serum LUMC looped peptides [4]: 0.3
RGQGVPINTNSGPDD,0.2,0.2,0.1,0.1,0.1,0.2,0.1,0.1,0.3,0.3,0.4,0.2,0.4,0.2,0.4,0.2,0.6,0.0,0.1,0.2,Binding of a rabbit serum to linear peptides of protein N of SARS-CoV Urbani (Rabbit serum linear peptides) [3]: 0.1; Binding of a rabbit serum to looped/cyclic peptides of protein N of SARS-CoV Urbani (Rabbit serum looped peptides) [3]: 0.0; Binding of Control Serum Blood-Bank to Looped peptides [4]: 0.4; Binding of Control serum Blood-bank to linear peptides [4]: 0.5; Binding of Control serum LUMC to linear peptides [4]: 0.5; Binding of Control serum LUMC to looped peptides [4]: 0.4
QRRPQGLPNNTASWF,0.2,0.5,0.1,0.3,0.1,0.5,0.2,0.4,0.6,0.7,0.7,0.6,0.4,0.5,0.2,0.7,0.7,0.6,0.1,0.2,Binding of a rabbit serum to linear peptides of protein N of SARS-CoV Urbani (Rabbit serum linear peptides) [3]: 0.1; Binding of a rabbit serum to looped/cyclic peptides of protein N of SARS-CoV Urbani (Rabbit serum looped peptides) [3]: 0.6; Binding of Control Serum Blood-Bank to Looped peptides [4]: 0.8; Binding of Control serum Blood-bank to linear peptides [4]: 0.7; Binding of Control serum LUMC to linear peptides [4]: 0.6; Binding of Control serum LUMC to looped peptides [4]: 0.9
QDLIRQGTDYKHWPQ,0.2,0.3,0.1,0.2,0.2,0.3,0.2,0.2,0.6,0.5,0.5,0.4,0.4,0.4,0.2,0.2,0.4,0.3,0.1,0.2,Binding of a rabbit serum to linear peptides of protein N of SARS-CoV Urbani (Rabbit serum linear peptides) [3]: 0.1; Binding of a rabbit serum to looped/cyclic peptides of protein N of SARS-CoV Urbani (Rabbit serum looped peptides) [3]: 0.2; Binding of Control Serum Blood-Bank to Looped peptides [4]: 0.6; Binding of Control serum Blood-bank to linear peptides [4]: 0.7; Binding of Control serum LUMC to linear peptides [4]: 0.6; Binding of Control serum LUMC to looped peptides [4]: 0.5
